{
  "source": "patent US20170209499A1",
  "about": "“Propolis and Extracts Thereof for the Treatment of Skin Cancers and Improvement of Skin Health” (Manuka Health New Zealand Limited, priority 2014, published 2017)",
  "system": "human melanoma cell line A-2058",
  "test": "MTT cell proliferation assay, human melanoma cell line A-2058",
  "type": "cell-based",
  "conditions": "for Mean OD: MTT Optical Density at 570 nm",
  "description": "This example describes the in vitro bioassay used for determining the anti-proliferative activity of test compounds and cyclodextrin-encapsulated propolis complexes against human skin cancer cell lines. The present example tests anti-proliferative efficacy against the human melanoma cell line, A-2058. The cyclodextrin-encapsulated propolis complexes tested are those described in Example 1. The NZ propolis was the same propolis used to manufacture the cyclodextrin complexes CD1-CD3. The Brazilian Green propolis was the same propolis used to manufacture the cyclodextrin complex CD4. The test samples were dissolved in 15% Ethanol (EtOH)/HBSS to make a working solution, which was then diluted 10 times to give a final concentration in the cells of 50 μg/ml unless indicated otherwise.\nThe three human skin cancer cell lines were: • 1) Human Melanoma cell line (A-2058). • 2) Human Epidermoid (Squamous) Carcinoma cell line (A-431). • 3) Human Basal Cell Carcinoma cell line (TE 354.T).\nThe cell lines were revived from cryostorage and cultured in the presence of the test and reference samples. An MIT assay was then performed on the cultures to determine the effect of the samples on the cell viability and proliferation. The percentage standard error of the mean was assessed and extreme outliers were removed if the SEM%>15. Preliminary statistical significance was assessed with an independent Student t-test at α<0.05 (with and without outliers). The methodology was based on the procedures reported by: • Ahn, N G, Campbell J S (1993). […] Proc Natl Acad Sci. 90: 5143-5147. • Galan-Cobo, A et al (2014). Functional inhibition of aquaporin-3 with a gold-based compound induces blockage of cell proliferation. J Cellul. Physiol. 229: 1787-1801. • Roomi, M W, Kalinovsky, J et al (2013) Effect of a nutrient mixture on matrix metalloproteinase-9 dimers in various human cancer cell lines. Inter 3 Oncol. 44: 936-942. • Huang, H C, Lin, M K et al (2013). Cardenolides and bufadienolide glycosides from Kalanchoe tubiflora and evaluation of cytotoxicity. Planta Medica. 79: 1362-1369. • Tilli, C M L J, Stavast-Kooy, A J W et al (2003). The garlic-derived organosulfur component ajoene decreases basal cell carcinoma tumor size by inducing apoptosis. Arch Dermatol Res. 295: 117-123.\n• 1. Human melanoma cell line (A-2058, ATCC CRL11147) was obtained from ATCC, Bethesda, Md., USA. • 2. Human squamous (epidermoid) carcinoma cell line (A-431, ATCC CRL1555) was obtained from ATCC, Bethesda, Md. USA. • 3. Human basal cell carcinoma cell line (TE 354.T, ATCC CRL7762) was obtained from ATCC, Bethesda, Md., USA. • 4. Dulbecco's Modified Eagle's Medium (DMEM) was obtained from GIBCO (12100-038). 10% Foetal Bovine Serum (FBS), 100 U/ml Penicillin and […] Streptomycin were added before use. • 5. Penicillin-streptomycin solution, stored at −20° C. consisting of 10000 units/ml penicillin and 10 mg/ml streptomycin in 0.9% NaCl was obtained from Sigma (#P-0781). • 6. Trypsin-EDTA solution consisting of 0.25% Trypsin/EDTA was obtained from Invitrogen (#15400054). • 7. Phosphate buffered saline (PBS) was prepared in-house. • 8. Hanks Balanced Salt Solution (HBSS), stored at 4° C. was obtained from GIBCO (#14185-052). • 9. Foetal Bovine Serum (FBS) stored at −20° C. was obtained from GIBCO (#10091-148). • 10. MTT Reagent, 100 mg/vial, was obtained from Sigma (M-2128) and then dissolved in PBS at 10 mg/ml and stored at −20° C. A 5 mg/ml MTT solution was prepared in PBS and stored at 4° C. as the working solution. • 11. MU lysis buffer: 10% sodium dodecyl sulphate (SDS)/45% Dimethyl Formamide was prepared by dissolving 20 g SDS in 100 ml of double-distilled water (DDW), and then adding 90 ml of Dimethyl Formamide to the solution. The pH was adjusted to 4.7 by glacial acetic acid, and DDW added up to a final volume of 200 ml. • 12. 5-Fluorouracil (5-FU) was supplied by Sigma (F-6627). Three working solutions were prepared at 19.5 μg/ml. 6.5 μg/ml and 1.95 μg/ml dissolved in 15% Ethanol/HBSS. […]",
  "data": [
    {"compound": "O=c1[nH]cc(F)c(=O)[nH]1", "note": "[5-fluorouracil, reference compound]", "values": [
      {"measurement": "Mean OD", "setting": "A-2058, 0.195 μg/ml", "result": 0.1937},
      {"measurement": "Mean OD", "setting": "A-2058, 0.65 μg/ml", "result": 0.1832},
      {"measurement": "Mean OD", "setting": "A-2058, 1.95 μg/ml", "result": 0.1847},
      {"measurement": "inhibition at 0.195 µg/mL", "setting": "Homo sapiens, A2058, 24 h, A-2058, final conc. 0.195 μg/ml, 24 hr incubation, vs cells only", "result": 3.73, "unit": "%"},
      {"measurement": "inhibition at 0.65 µg/mL", "setting": "Homo sapiens, A2058, 24 h, A-2058, final conc. 0.65 μg/ml, 24 hr incubation, vs cells only", "result": 8.99, "unit": "%"},
      {"measurement": "inhibition at 1.95 µg/mL", "setting": "Homo sapiens, A2058, 24 h, A-2058, final conc. 1.95 μg/ml, 24 hr incubation, vs cells only", "result": 8.25, "unit": "%"}
    ]}
  ]
}
